From ChEMBL document CHEMBL1201862, “PubChem BioAssay data set” (2004)
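Method: 48-hour compound exposure of cells in 96-well plates, five concentrations, linear interpolation of endpoints. GI50 marks 50% less growth.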 Active and inactive are the calls of the source. Rule as the data show it: active = GI50 up to about 1.1 µM and inactive = higher.

How the values were obtained:
Assay in all cases: NCI-60 cell line screen, 48 h
ACHN = system: ACHN
HCC 2998 = system: HCC 2998
HOP-62 = system: HOP-62
HOP-92 = system: HOP-92
IGROV-1 = system: IGROV-1
LOX IMVI = system: LOX IMVI
Malme-3M = system: Malme-3M
NCI-H226 = system: NCI-H226
NCI-H23 = system: NCI-H23
OVCAR-8 = system: OVCAR-8
RPMI-8226 = system: RPMI-8226
RXF 393 = system: RXF 393
SF-268 = system: SF-268
SK-MEL-28 = system: SK-MEL-28
U-251 = system: U-251
CAKI-1 = system: CAKI-1
SK-MEL-5 = system: SK-MEL-5
SK-OV-3 = system: SK-OV-3
MDA-MB-231 = system: MDA-MB-231
PC-3 = system: PC-3

Measured: GI50

O=c1c2ccccc2[nH]c(=S)n1-c1ccc(Br)cc1
inactive: ACHN 42.5 µM | HCC 2998 > 100 µM | HOP-62 > 100 µM | HOP-92 18.8 µM | IGROV-1 71.4 µM | LOX IMVI 48.5 µM | Malme-3M > 100 µM | NCI-H226 > 100 µM | NCI-H23 51.9 µM | OVCAR-8 95.5 µM | RPMI-8226 40.1 µM | RXF 393 > 100 µM | SF-268 90.8 µM | SK-MEL-28 > 100 µM | U-251 > 100 µM

CCOC(=O)c1c(/C=N\Nc2ccccc2)nc2ccccc2c1-c1ccccc1
inactive: ACHN 32.7 µM | CAKI-1 68.9 µM | HCC 2998 21.8 µM | HOP-62 39 µM | HOP-92 45.4 µM | IGROV-1 67.1 µM | LOX IMVI 35.4 µM | Malme-3M 35.1 µM | NCI-H226 45.7 µM | NCI-H23 39.7 µM | OVCAR-8 32.1 µM | RPMI-8226 20.1 µM | RXF 393 65.8 µM | SF-268 56.5 µM | SK-MEL-28 70.8 µM | SK-MEL-5 31.2 µM | SK-OV-3 > 100 µM | U-251 38.2 µM

c1ccc2c(c1)Cc1c(Cc3csc4ccccc34)ccc3cccc-2c13
inactive: ACHN > 100 µM | HCC 2998 > 100 µM | HOP-62 > 100 µM | HOP-92 > 100 µM | IGROV-1 > 100 µM | Malme-3M > 100 µM | NCI-H23 > 100 µM | OVCAR-8 > 100 µM | RPMI-8226 > 100 µM | RXF 393 > 100 µM | SF-268 > 100 µM | SK-MEL-28 > 100 µM | SK-MEL-5 > 100 µM | U-251 > 100 µM

O=C(CC1(O)C(=O)Nc2ccccc21)c1ccccc1Cl (stereo not drawn)
inactive: ACHN > 100 µM | CAKI-1 > 100 µM | HOP-92 > 100 µM | IGROV-1 > 100 µM | LOX IMVI > 100 µM | Malme-3M > 100 µM | NCI-H226 > 100 µM | NCI-H23 > 100 µM | OVCAR-8 > 100 µM | RPMI-8226 > 100 µM | RXF 393 > 100 µM | SF-268 > 100 µM | SK-MEL-28 > 100 µM | SK-MEL-5 > 100 µM | SK-OV-3 > 100 µM

COC(=O)C(=O)C(CC(=O)Nc1c(C)cccc1C)C(=O)OC (stereo not drawn)
inactive: ACHN > 100 µM | CAKI-1 > 100 µM | HCC 2998 > 100 µM | HOP-62 > 100 µM | HOP-92 > 100 µM | IGROV-1 > 100 µM | LOX IMVI > 100 µM | Malme-3M > 100 µM | NCI-H226 > 100 µM | NCI-H23 > 100 µM | OVCAR-8 > 100 µM | RPMI-8226 > 100 µM | RXF 393 > 100 µM | SF-268 > 100 µM | SK-MEL-28 > 100 µM | SK-MEL-5 > 100 µM | SK-OV-3 > 100 µM | U-251 > 100 µM

COc1cc(/C=C2/SC(c3ccccc3)N(c3ccccc3Cl)C2=O)cc(OC)c1OC (stereo not drawn)
inactive: ACHN 58.1 µM | CAKI-1 55.7 µM | HCC 2998 88.1 µM | HOP-62 33.6 µM | HOP-92 26.1 µM | LOX IMVI 17.6 µM | MDA-MB-231 58.3 µM | Malme-3M 23.4 µM | NCI-H226 30.1 µM | NCI-H23 22.8 µM | OVCAR-8 35.2 µM | RPMI-8226 21.7 µM | RXF 393 20.7 µM | SF-268 41.1 µM | SK-MEL-28 30.5 µM | SK-MEL-5 15.4 µM | SK-OV-3 19.8 µM | U-251 23.1 µM

O=C1CCC(=O)N2CCCCN12
inactive: ACHN > 100 µM | CAKI-1 > 100 µM | HCC 2998 > 100 µM | HOP-62 > 100 µM | HOP-92 > 100 µM | IGROV-1 > 100 µM | LOX IMVI > 100 µM | Malme-3M > 100 µM | NCI-H226 > 100 µM | NCI-H23 > 100 µM | OVCAR-8 > 100 µM | RXF 393 > 100 µM | SF-268 > 100 µM | SK-MEL-28 > 100 µM | SK-MEL-5 > 100 µM | SK-OV-3 > 100 µM | U-251 > 100 µM

CCOC(=O)Cc1csc(Nc2ccccc2[N+](=O)[O-])n1
inactive: ACHN > 100 µM | CAKI-1 > 100 µM | HCC 2998 > 100 µM | HOP-62 > 100 µM | HOP-92 > 100 µM | IGROV-1 > 100 µM | LOX IMVI > 46.7 µM | Malme-3M > 100 µM | NCI-H226 > 100 µM | NCI-H23 > 100 µM | OVCAR-8 > 100 µM | RPMI-8226 > 100 µM | RXF 393 > 100 µM | SF-268 > 100 µM | SK-MEL-28 > 100 µM | SK-MEL-5 > 100 µM | SK-OV-3 > 100 µM | U-251 > 100 µM

O=[N+]([O-])/C(C(Cl)=C(Cl)Cl)=C(\Nc1ccccc1)n1nnc2ccccc21
inactive: ACHN > 100 µM | CAKI-1 > 100 µM | HCC 2998 > 100 µM | HOP-62 30.6 µM | LOX IMVI 17.4 µM | MDA-MB-231 27 µM | Malme-3M 46.1 µM | NCI-H226 > 100 µM | NCI-H23 25.9 µM | OVCAR-8 > 100 µM | PC-3 40.6 µM | RPMI-8226 21.6 µM | SF-268 19.8 µM | SK-MEL-28 32.7 µM | SK-OV-3 71.3 µM | U-251 29.9 µM

CCC1C(C(=O)Nc2ccccc2C)=C(C)NC(C)=C1c1ccccc1C (stereo not drawn)
inactive: ACHN > 100 µM | CAKI-1 > 100 µM | HCC 2998 > 100 µM | HOP-62 > 100 µM | HOP-92 > 100 µM | IGROV-1 > 100 µM | LOX IMVI > 57.8 µM | Malme-3M > 100 µM | NCI-H226 > 100 µM | NCI-H23 > 100 µM | OVCAR-8 > 100 µM | RPMI-8226 31.8 µM | RXF 393 > 100 µM | SF-268 > 40.6 µM | SK-MEL-28 > 100 µM | SK-MEL-5 > 100 µM | SK-OV-3 > 100 µM | U-251 > 100 µM

CC(=O)O[C@H]1CC[C@@]2(C)C(=CC[C@H]3C(CC#N)[C@@](C)(C#N)CCC32)C1 (stereo partly drawn)
inactive: ACHN > 100 µM | HCC 2998 > 100 µM | HOP-62 > 100 µM | HOP-92 16.1 µM | IGROV-1 > 100 µM | LOX IMVI > 100 µM | Malme-3M > 100 µM | NCI-H226 > 100 µM | NCI-H23 > 100 µM | OVCAR-8 > 100 µM | RPMI-8226 > 100 µM | RXF 393 > 100 µM | SF-268 > 100 µM | SK-MEL-28 > 100 µM | SK-MEL-5 > 100 µM | SK-OV-3 > 100 µM | U-251 74 µM

O=CN1CCN(C=S)CC1
inactive: ACHN > 100 µM | CAKI-1 > 100 µM | HCC 2998 > 100 µM | HOP-62 > 100 µM | HOP-92 > 100 µM | IGROV-1 > 100 µM | LOX IMVI > 100 µM | Malme-3M > 100 µM | NCI-H226 > 100 µM | NCI-H23 > 100 µM | OVCAR-8 > 100 µM | RPMI-8226 > 100 µM | RXF 393 > 100 µM | SF-268 > 100 µM | SK-MEL-28 > 100 µM | SK-MEL-5 > 100 µM | SK-OV-3 > 100 µM | U-251 > 100 µM

Cc1ccc2c(c1)SC(c1cc3c(cc1Br)OCO3)S2 (stereo not drawn)
inactive: ACHN > 31.6 µM | CAKI-1 > 76 µM | HCC 2998 31 µM | HOP-62 > 31.6 µM | HOP-92 6.22 µM | IGROV-1 > 31.6 µM | LOX IMVI > 31.6 µM | Malme-3M > 31.6 µM | NCI-H226 > 31.6 µM | NCI-H23 > 31.6 µM | OVCAR-8 > 31.6 µM | RPMI-8226 18.5 µM | RXF 393 12.3 µM | SF-268 > 31.6 µM | SK-MEL-28 > 31.6 µM | SK-MEL-5 > 31.6 µM | SK-OV-3 > 31.6 µM | U-251 > 31.6 µM

COC(=O)[C@@H]1C(=O)O[C@@H](c2cc(OC)c(OC)cc2OC)[C@@H]1C(=O)OC.COC(=O)[C@H]1C(=O)O[C@@H](c2cc(OC)c(OC)cc2OC)[C@@H]1C(=O)OC
inactive: ACHN > 100 µM | CAKI-1 > 100 µM | HCC 2998 > 100 µM | HOP-62 > 100 µM | HOP-92 > 100 µM | IGROV-1 > 100 µM | LOX IMVI > 100 µM | Malme-3M > 100 µM | NCI-H226 > 100 µM | NCI-H23 > 100 µM | OVCAR-8 > 100 µM | RPMI-8226 > 100 µM | RXF 393 > 100 µM | SF-268 > 100 µM | SK-MEL-28 > 100 µM | SK-MEL-5 > 100 µM | SK-OV-3 > 100 µM | U-251 > 100 µM

COC(=O)C1C(C(=O)OC)C2(OC)c3ccccc3-c3ccccc3C12 (stereo not drawn)
inactive: ACHN 37.9 µM | CAKI-1 40.1 µM | HCC 2998 64.3 µM | HOP-62 71.6 µM | HOP-92 35 µM | IGROV-1 35 µM | LOX IMVI 25.6 µM | Malme-3M 47.9 µM | NCI-H226 49.5 µM | NCI-H23 27.6 µM | OVCAR-8 49.7 µM | RPMI-8226 9.89 µM | RXF 393 40.9 µM | SF-268 45.1 µM | SK-MEL-28 90.2 µM | SK-MEL-5 18.7 µM | SK-OV-3 80 µM | U-251 42.9 µM

C[n+]1ccc(Nc2ccc(NC(=O)c3ccc(Nc4cc[n+](C)c5ccc([N+](=O)[O-])cc45)cc3[N+](=O)[O-])cc2)cc1
inactive: ACHN > 100 µM | CAKI-1 > 73.1 µM | HOP-62 47.1 µM | HOP-92 26.9 µM | IGROV-1 > 100 µM | LOX IMVI > 39.7 µM | Malme-3M 19.5 µM | NCI-H226 50.4 µM | NCI-H23 29.7 µM | OVCAR-8 22.8 µM | RPMI-8226 13.3 µM | RXF 393 > 83.8 µM | SF-268 30.9 µM | SK-MEL-28 28.4 µM | SK-MEL-5 23.3 µM | SK-OV-3 57.8 µM | U-251 21.7 µM
